Assay results from patent US12421205B2, “GLP-1 receptor agonist” (HYUNDAI PHARM CO., LTD., priority 2019, dated 2025).

How the values were obtained:
[1] = target: T1, hERG (Homo sapiens, UniProt Q12809); assay: hERG inhibition test (Predictor hERG Fluorescence Polarization assay kit); format: binding; conditions: probe kit Tracer (fluorescent hERG ligand), hERG % inhibition at 10 uM, relative to E-4031 and solvent control
T1 construct: purchased Invitrogen PV5365
Summary of the method: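 Competitive fluorescence-polarization binding of fluorescent tracer to hERG membrane preparation, 2.5 h at room temperature, mP read at 531/579 nm. % inhibition at 10 uM test compound, scaled between solvent control (0%) and E-4031 (100%).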

[2] = target: T2, human GLP-1 receptor (Homo sapiens, UniProt P43220); assay: cAMP activity test (cAMP dynamic HTRF kit) in CHO-K1/GLP-1 receptor-expressing cells; format: cell-based; conditions: cAMP activity, CHO-K1/GLP-1 receptor-expressing cells; read-out: EC50
T2 construct: host or cells: CHO-K1
T2 sequence (P43220 24-463): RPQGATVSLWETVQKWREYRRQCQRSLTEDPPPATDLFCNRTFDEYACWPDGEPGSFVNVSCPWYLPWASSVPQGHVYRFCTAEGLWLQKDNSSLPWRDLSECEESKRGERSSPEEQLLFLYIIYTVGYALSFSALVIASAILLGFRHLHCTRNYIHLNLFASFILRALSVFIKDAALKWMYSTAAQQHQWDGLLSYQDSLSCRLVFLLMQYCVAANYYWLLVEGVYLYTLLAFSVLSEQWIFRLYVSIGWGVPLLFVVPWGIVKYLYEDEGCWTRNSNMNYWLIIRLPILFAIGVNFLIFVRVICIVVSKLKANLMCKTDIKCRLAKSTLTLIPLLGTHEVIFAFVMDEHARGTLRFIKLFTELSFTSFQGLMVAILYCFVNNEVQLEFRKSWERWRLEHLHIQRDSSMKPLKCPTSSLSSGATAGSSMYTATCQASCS
Summary of the method: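 Cells in HBSS with 0.1% BSA, 0.5 mM IBMX and 5 mM HEPES, then lysed; cAMP-d2 and anti-cAMP cryptate added for 3 h. HTRF read-out, where FRET signal is inversely proportional to intracellular cAMP.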

T1 sequence (Q12809 whole entry): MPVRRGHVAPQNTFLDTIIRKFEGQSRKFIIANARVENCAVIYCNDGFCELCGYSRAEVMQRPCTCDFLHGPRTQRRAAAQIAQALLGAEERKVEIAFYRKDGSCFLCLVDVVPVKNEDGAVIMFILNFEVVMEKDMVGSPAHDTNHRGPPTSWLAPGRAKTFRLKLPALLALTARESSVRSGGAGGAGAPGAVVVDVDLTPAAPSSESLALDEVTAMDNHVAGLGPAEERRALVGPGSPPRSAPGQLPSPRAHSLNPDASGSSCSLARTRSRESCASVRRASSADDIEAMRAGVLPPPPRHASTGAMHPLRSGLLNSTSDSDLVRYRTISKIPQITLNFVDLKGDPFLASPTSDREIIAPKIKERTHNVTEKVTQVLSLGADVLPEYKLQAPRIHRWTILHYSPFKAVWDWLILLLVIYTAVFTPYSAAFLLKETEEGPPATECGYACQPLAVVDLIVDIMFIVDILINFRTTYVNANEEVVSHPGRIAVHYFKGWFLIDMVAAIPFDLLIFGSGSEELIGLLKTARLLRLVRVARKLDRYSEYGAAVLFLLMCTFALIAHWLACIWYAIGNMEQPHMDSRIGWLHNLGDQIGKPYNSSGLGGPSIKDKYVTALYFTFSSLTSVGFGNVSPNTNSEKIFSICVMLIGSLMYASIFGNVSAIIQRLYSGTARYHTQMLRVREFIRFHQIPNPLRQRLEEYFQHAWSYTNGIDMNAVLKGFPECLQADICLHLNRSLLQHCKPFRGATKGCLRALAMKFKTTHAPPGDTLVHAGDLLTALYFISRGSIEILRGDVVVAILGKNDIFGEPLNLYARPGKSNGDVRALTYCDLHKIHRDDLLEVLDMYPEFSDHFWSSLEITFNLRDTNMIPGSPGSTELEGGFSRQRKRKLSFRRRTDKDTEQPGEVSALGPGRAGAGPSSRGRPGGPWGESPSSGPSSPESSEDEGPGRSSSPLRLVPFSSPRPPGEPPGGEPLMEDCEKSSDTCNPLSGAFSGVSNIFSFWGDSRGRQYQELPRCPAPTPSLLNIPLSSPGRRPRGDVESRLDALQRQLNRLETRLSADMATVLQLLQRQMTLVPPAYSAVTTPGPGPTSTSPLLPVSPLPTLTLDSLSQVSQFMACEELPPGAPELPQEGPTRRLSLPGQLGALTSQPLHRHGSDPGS

O=C(O)c1ccc2nc(Cn3ccc(-c4cccc(OCc5ccc(Cl)cc5F)n4)cc3=O)n(CC3CCCO3)c2c1 (stereo not drawn) [Example 105, 2-((4-(6-(4-chloro-2-fluorobenzyloxy)pyridin-2-yl)-2-oxopyridin-1(2H)-yl)methyl)-1-((tetrahydrofuran-2-yl)methyl)-1H-benzo[d]imidazole-6-carboxylic acid]
inhibition at 2.5 h, 10 µM [1]: 25.1% | EC50 [2]: 46 nM

O=C(O)c1ccc2nc(Cn3ccc(-c4cccc(OCc5ccc(Cl)cc5F)c4)cc3=O)n(CC3CCCO3)c2c1 (stereo not drawn) [Example 106, 2-((4-(3-(4-chloro-2-fluorobenzyloxy)phenyl)-2-oxopyridin-1(2H)-yl)methyl)-1-((tetrahydrofuran-2-yl)methyl)-1H-benzo[d]imidazole-6-carboxylic acid]
inhibition at 2.5 h, 10 µM [1]: -2.71% | EC50 [2]: 110 nM

N#Cc1ccc(COc2cccc(-c3ccn(Cc4nc5ccc(C(=O)O)cc5n4CC4CCCO4)c(=O)c3)c2)c(F)c1 (stereo not drawn) [Example 107, 2-((4-(3-(4-cyano-2-fluorobenzyloxy)phenyl)-2-oxopyridin-1(2H)-yl)methyl)-1-((tetrahydrofuran-2-yl)methyl)-1H-benzo[d]imidazole-6-carboxylic acid]
inhibition at 2.5 h, 10 µM [1]: 2.7% | EC50 [2]: 380 nM

O=C(O)c1ccc2nc(Cn3ccc(-c4cccc(OCc5ccc(Cl)cc5F)n4)cc3=O)n(C[C@@H]3CCCO3)c2c1 [Example 108, (S)-2-((4-(6-(4-chloro-2-fluorobenzyloxy)pyridin-2-yl)-2-oxopyridin-1(2H)-yl)methyl)-1-((tetrahydrofuran-2-yl)methyl)-1H-benzo[d]imidazole-6-carboxylic acid]
inhibition at 2.5 h, 10 µM [1]: 4% | EC50 [2]: 130 nM

N#Cc1ccc(COc2cccc(-c3ccn(Cc4nc5ccc(C(=O)O)cc5n4C[C@@H]4CCCO4)c(=O)c3)n2)c(F)c1 [Example 109, (S)-2-((4-(6-(4-cyano-2-fluorobenzyloxy)pyridin-2-yl)-2-oxopyridin-1(2H)-yl)methyl)-1-((tetrahydrofuran-2-yl)methyl)-1H-benzo[d]imidazole-6-carboxylic acid]
inhibition at 2.5 h, 10 µM [1]: 6.49% | EC50 [2]: 130 nM

O=C(O)c1ccc2nc(Cn3ccc(-c4cccc(OCc5ccc(Cl)cc5F)n4)cc3=O)n(C[C@@H]3CCO3)c2c1 [Example 110, (S)-2-((6-((4-chloro-2-fluorobenzyl)oxy)-2′-oxo-[2,4′-bipyridin]-1′(2′H)-yl)methyl)-1-(oxetan-2-ylmethyl)-1H-benzo[d]imidazole-6-carboxylic acid]
inhibition at 2.5 h, 10 µM [1]: 7.61% | EC50 [2]: 16 nM

N#Cc1ccc(COc2cccc(-c3ccn(Cc4nc5ccc(C(=O)O)cc5n4C[C@@H]4CCO4)c(=O)c3)n2)c(F)c1 [Example 111, (S)-2-((4-(6-(4-cyano-2-fluorobenzyloxy)pyridin-2-yl)-2-oxopyridin-1(2H)-yl)methyl)-1-(oxetan-2-ylmethyl)-1H-benzo[d]imidazole-6-carboxylic acid]
inhibition at 2.5 h, 10 µM [1]: 1.32% | EC50 [2]: 20 nM

O=C(O)c1ccc2nc(Cn3cnc(-c4cccc(OCc5ccc(Cl)cc5F)n4)cc3=O)n(CC3CCCO3)c2c1 (stereo not drawn) [Example 112, 2-((4-(6-(4-chloro-2-fluorobenzyloxy)pyridin-2-yl)-6-oxopyrimidin-1(6H)-yl)methyl)-1-((tetrahydrofuran-2-yl)methyl)-1H-benzo[d]imidazole-6-carboxylic acid]
inhibition at 2.5 h, 10 µM [1]: 1.14% | EC50 [2]: 290 nM

N#Cc1ccc(COc2cccc(-c3ccc(Cc4nc5ccc(C(=O)O)cc5n4C[C@@H]4CCO4)c(F)c3F)n2)c(F)c1 [Example 113, (S)-2-(4-(6-((4-cyano-2-fluorobenzyl)oxy)pyridin-2-yl)-2,3-difluorobenzyl)-1-(oxetan-2-ylmethyl)-1H-benzo[d]imidazole-6-carboxylic acid]
inhibition at 2.5 h, 10 µM [1]: -4.94% | EC50 [2]: < 3.2 nM

N#Cc1ccc(COc2cccc(-c3ccc(Cc4nc5ccc(C(=O)O)cc5n4CC4CCO4)cc3F)n2)c(F)c1 (stereo not drawn) [Example 114, 2-(4-(6-((4-cyano-2-fluorobenzyl)oxy)pyridin-2-yl)-3-fluorobenzyl)-1-(oxetan-2-ylmethyl)-1H-benzo[d]imidazole-6-carboxylic acid]
inhibition at 2.5 h, 10 µM [1]: -4.71% | EC50 [2]: < 3.2 nM

N#Cc1ccc(COc2cccc(-c3cc(F)c(Cc4nc5ccc(C(=O)O)cc5n4C[C@@H]4CCO4)cc3F)n2)c(F)c1 [Example 115, (S)-2-(4-(6-((4-cyano-2-fluorobenzyl)oxy)pyridin-2-yl)-2,5-difluorobenzyl)-1-(oxetan-2-ylmethyl)-1H-benzo[d]imidazole-6-carboxylic acid]
inhibition at 2.5 h, 10 µM [1]: -2.45% | EC50 [2]: < 3.2 nM

O=C(O)c1ccc2nc(Cc3cc(F)c(-c4cccc(OCc5ccc(Cl)cc5F)n4)cc3F)n(C[C@@H]3CCCO3)c2c1 [Example 116, (S)-2-(4-(6-((4-chloro-2-fluorobenzyl)oxy)pyridin-2-yl)-2,5-difluorobenzyl)-1-((tetrahydrofuran-2-yl)methyl)-1H-benzo[d]imidazole-6-carboxylic acid]
inhibition at 2.5 h, 10 µM [1]: 5.86% | EC50 [2]: < 3.2 nM

O=C(O)c1ccc2nc(Cc3ccc(-c4ccc(F)c(OCc5ccc(Cl)cc5F)n4)c(F)c3)n(C[C@@H]3CCO3)c2c1 [Example 117, (S)-2-(4-(6-((4-chloro-2-fluorobenzyl)oxy)-5-fluoropyridin-2-yl)-3-fluorobenzyl)-1-(oxetan-2-ylmethyl)-1H-benzo[d]imidazole-6-carboxylic acid]
inhibition at 2.5 h, 10 µM [1]: 12.5% | EC50 [2]: < 3.2 nM

N#Cc1ccc(COc2cccc(-c3ccc(Cc4nc5ccc(C(=O)O)cc5n4C[C@@H]4CCO4)cc3F)n2)cc1 [Example 118, (S)-2-(4-(6-((4-cyanobenzyl)oxy)pyridin-2-yl)-3-fluorobenzyl)-1-(oxetan-2-ylmethyl)-1H-benzo[d]imidazole-6-carboxylic acid]
inhibition at 2.5 h, 10 µM [1]: 20.7% | EC50 [2]: 4.3 nM

O=C(O)c1ccc2nc(Cc3ccc(-c4cccc(OCc5ccc(F)cc5F)n4)c(F)c3)n(C[C@@H]3CCO3)c2c1 [Example 119, (S)-2-(4-(6-((2,4-difluorobenzyl)oxy)pyridin-2-yl)-3-fluorobenzyl)-1-(oxetan-2-ylmethyl)-1H-benzo[d]imidazole-6-carboxylic acid]
inhibition at 2.5 h, 10 µM [1]: 4.13% | EC50 [2]: 12 nM

N#Cc1ccc(COc2cccc(-c3cc(F)c(Cc4nc5ccc(C(=O)O)cc5n4C[C@@H]4CCCO4)cc3F)n2)c(F)c1 [Example 120, (S)-2-(4-(6-((4-cyano-2-fluorobenzyl)oxy)pyridin-2-yl)-2,5-difluorobenzyl)-1-((tetrahydrofuran-2-yl)methyl)-1H-benzo[d]imidazole-6-carboxylic acid]
inhibition at 2.5 h, 10 µM [1]: -3.82% | EC50 [2]: < 3.2 nM

O=C(O)c1ccc2nc(Cc3ccc(-c4cccc(OCc5ccc(C(F)(F)F)cc5)n4)c(F)c3)n(C[C@@H]3CCO3)c2c1 [Example 121, (S)-2-(3-fluoro-4-(6-((4-(trifluoromethyl)benzyl)oxy)pyridin-2-yl)benzyl)-1-(oxetan-2-ylmethyl)-1H-benzo[d]imidazole-6-carboxylic acid]
inhibition at 2.5 h, 10 µM [1]: -10.7% | EC50 [2]: 15 nM

COc1ccc(COc2cccc(-c3ccc(Cc4nc5ccc(C(=O)O)cc5n4C[C@@H]4CCO4)cc3F)n2)cc1 [Example 122, (S)-2-(3-fluoro-4-(6-((4-methoxybenzyl)oxy)pyridin-2-yl)benzyl)-1-(oxetan-2-ylmethyl)-1H-benzo[d]imidazole-6-carboxylic acid]
inhibition at 2.5 h, 10 µM [1]: -5.75% | EC50 [2]: 9.5 nM

O=C(O)c1ccc2nc(Cc3ccc(-c4cccc(OCc5ccc(Cl)cc5)n4)c(F)c3)n(C[C@@H]3CCO3)c2c1 [Example 123, (S)-2-(4-(6-((4-chlorobenzyl)oxy)pyridin-2-yl)-3-fluorobenzyl)-1-(oxetan-2-ylmethyl)-1H-benzo[d]imidazole-6-carboxylic acid]
inhibition at 2.5 h, 10 µM [1]: -0.45% | EC50 [2]: 14 nM

O=C(O)c1ccc2nc(Cc3ccc(-c4cccc(OCc5ccc([N+](=O)[O-])cc5)n4)c(F)c3)n(C[C@@H]3CCO3)c2c1 [Example 124, (S)-2-(3-fluoro-4-(6-((4-nitrobenzyl)oxy)pyridin-2-yl)benzyl)-1-(oxetan-2-ylmethyl)-1H-benzo[d]imidazole-6-carboxylic acid]
inhibition at 2.5 h, 10 µM [1]: 7.28% | EC50 [2]: 4.3 nM

O=C(O)c1ccc2nc(Cc3ccc(-c4cccc(OCc5ccc(F)c(F)c5)n4)c(F)c3)n(C[C@@H]3CCO3)c2c1 [Example 125, (S)-2-(4-(6-((3,4-difluorobenzyl)oxy)pyridin-2-yl)-3-fluorobenzyl)-1-(oxetan-2-ylmethyl)-1H-benzo[d]imidazole-6-carboxylic acid]
inhibition at 2.5 h, 10 µM [1]: -19.5% | EC50 [2]: 37 nM

O=C(O)c1ccc2nc(Cc3ccc(-c4cccc(OCc5c(F)cccc5Cl)n4)c(F)c3)n(C[C@@H]3CCO3)c2c1 [Example 126, (S)-2-(4-(6-((2-chloro-6-fluorobenzyl)oxy)pyridin-2-yl)-3-fluorobenzyl)-1-(oxetan-2-ylmethyl)-1H-benzo[d]imidazole-6-carboxylic acid]
inhibition at 2.5 h, 10 µM [1]: -3.99% | EC50 [2]: 510 nM

O=C(O)c1ccc2nc(Cn3ccc(-c4cccc(OCc5ccc(Cl)cc5F)n4)cc3=O)n(CC3CCO3)c2c1 (stereo not drawn) [Example 127, 2-((6-((4-chloro-2-fluorobenzyl)oxy)-2′-oxo-[2,4′-bipyridin]-1′(2′H)-yl)methyl)-1-(oxetan-2-ylmethyl)-1H-benzo[d]imidazole-6-carboxylic acid]
inhibition at 2.5 h, 10 µM [1]: 2.3% | EC50 [2]: 20 nM

O=C(O)c1ccc2nc(Cc3ccc(-c4cccc(OCc5ccncc5)n4)c(F)c3)n(C[C@@H]3CCO3)c2c1 [Example 128, (S)-2-(3-fluoro-4-(6-(pyridin-4-ylmethoxy)pyridin-2-yl)benzyl)-1-(oxetan-2-ylmethyl)-1H-benzo[d]imidazole-6-carboxylic acid]
inhibition at 2.5 h, 10 µM [1]: -6.1% | EC50 [2]: 260 nM
